Source: patent US20030008309A1, “Microarrays and methods for evaluating activity of compounds having estrogen-like activity” (National Institute of Advanced Industrial Science and …, priority 2000, published 2003)

Test system: MCF-7 cells
Experiment: Microarray evaluation of estrogen-like activity (expression levels of estrogen-responsive genes/ESTs, Cy3/Cy5) in MCF-7 cells

Structure (SMILES): Clc1cc2c(cc1Cl)Oc1cc(Cl)c(Cl)cc1O2 [dioxin, 2,3,7,8-tetrachlorodibenzo-p-dioxin]
- evaluation value considering weighting factor (K): 32.90
- Σ(E(example)n), summation value of expression levels (10 nM treatment, n=1 to 203, independently determined): 207.49
- evaluation value = Σ[|log{BDE(A)n/BDE(Estrogen)n}|], n=1 to 203 (listed as example 2): 46.19
